Measurements taken from PubChem BioAssay AID330 (DTP/NCI, 2004).
Where “and” joins values, the source holds several entries; their conditions need not be identical. Equal entries are not always repeated. Inconclusive results and toxic doses are left out. Rule for the calls: active = survival T/C of 150% or more; inactive = T/C below 125% in these data.

System: P388 leukemia ip, CD2F1 mice, survival T/C
Assay: NCI In Vivo Anticancer Drug Screen. Data for tumor model P388 Leukemia (intraperitoneal) in CD2F1 (CDF1) mice
Settings: endpoint: median survival time, higher = longer survival
Method in brief: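 Mice carrying the transplanted tumor received test compound or vehicle. Survival was recorded in each group, and the value is the treated-group measurement divided by that of the vehicle-treated control group.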

[1] = dose: 50.0 mg/kg/injection, schedule: Q01DX009 (ip), vehicle: saline
[2] = dose: 100.0 mg/kg/injection, schedule: Q01DX009 (ip), vehicle: saline
[3] = dose: 200.0 mg/kg/injection, schedule: Q01DX009 (ip), vehicle: saline
[4] = dose: 50.0 mg/kg/injection, schedule: Q01DX009 (ip), vehicle: Klucel (hydroxypropylcellulose) (HPC)
[5] = dose: 100.0 mg/kg/injection, schedule: Q01DX009 (ip), vehicle: Klucel (hydroxypropylcellulose) (HPC)
[6] = dose: 200.0 mg/kg/injection, schedule: Q01DX009 (ip), vehicle: Klucel (hydroxypropylcellulose) (HPC)
[7] = dose: 50.0 mg/kg/injection, schedule: Q01DX005 (ip), vehicle: Klucel (hydroxypropylcellulose) (HPC)
[8] = dose: 100.0 mg/kg/injection, schedule: Q01DX005 (ip), vehicle: Klucel (hydroxypropylcellulose) (HPC)
[9] = dose: 200.0 mg/kg/injection, schedule: Q01DX005 (ip), vehicle: Klucel (hydroxypropylcellulose) (HPC)
[10] = dose: 60.0 mg/kg/injection, schedule: Q01DX005 (ip), vehicle: saline with Tween-80
[11] = dose: 120.0 mg/kg/injection, schedule: Q01DX005 (ip), vehicle: saline with Tween-80
[12] = dose: 240.0 mg/kg/injection, schedule: Q01DX005 (ip), vehicle: saline with Tween-80
[13] = dose: 60.0 mg/kg/injection, schedule: Q01DX005 (ip), vehicle: Klucel (hydroxypropylcellulose) (HPC)
[14] = dose: 120.0 mg/kg/injection, schedule: Q01DX005 (ip), vehicle: Klucel (hydroxypropylcellulose) (HPC)
[15] = dose: 240.0 mg/kg/injection, schedule: Q01DX005 (ip), vehicle: Klucel (hydroxypropylcellulose) (HPC)

Measured: T/C

Cc1ccc(NCCNCCO)c2c(=O)c3cc(O)ccc3sc12
inactive: dose: 25.0 mg/kg/injection, schedule: Q01DX009 (ip), vehicle: saline with Tween-80 103 % of control
active: dose: 6.25 mg/kg/injection, schedule: Q01DX009 (ip), vehicle: saline with Tween-80 150 % of control | dose: 12.5 mg/kg/injection, schedule: Q01DX009 (ip), vehicle: saline with Tween-80 156 % of control and 169 % of control

C/[N+]([O-])=C/c1ncc([N+](=O)[O-])n1CCO
inactive: [1] 102 % of control | [2] 107 % of control | [3] 98 % of control

CCNC(=O)N(CC(=O)NC)c1ncc([N+](=O)[O-])s1
inactive: dose: 100.0 mg/kg/injection, schedule: Q04DX002 (ip), vehicle: Klucel (hydroxypropylcellulose) (HPC) 103 % of control | dose: 200.0 mg/kg/injection, schedule: Q04DX002 (ip), vehicle: Klucel (hydroxypropylcellulose) (HPC) 101 % of control | dose: 400.0 mg/kg/injection, schedule: Q04DX002 (ip), vehicle: Klucel (hydroxypropylcellulose) (HPC) 108 % of control

OC1CC2CCc3[nH]c4ccccc4c3CCN(C1)C2 (stereo unspecified)
inactive: dose: 5.5 mg/kg/injection, schedule: Q01DX005 (ip), vehicle: Klucel (hydroxypropylcellulose) (HPC) 91 % of control | dose: 11.0 mg/kg/injection, schedule: Q01DX005 (ip), vehicle: Klucel (hydroxypropylcellulose) (HPC) 96 % of control | dose: 22.0 mg/kg/injection, schedule: Q01DX005 (ip), vehicle: Klucel (hydroxypropylcellulose) (HPC) 100 % of control | dose: 44.0 mg/kg/injection, schedule: Q01DX005 (ip), vehicle: Klucel (hydroxypropylcellulose) (HPC) 100 % of control

COC(=O)/C=C/c1cc[n+]([O-])cc1
inactive: dose: 50.0 mg/kg/injection, schedule: Q01DX005 (ip), vehicle: saline 93 % of control | dose: 100.0 mg/kg/injection, schedule: Q01DX005 (ip), vehicle: saline 101 % of control | dose: 200.0 mg/kg/injection, schedule: Q01DX005 (ip), vehicle: saline 101 % of control

CC1=C(Cl)CC(/C(C)=C/Cl)OC1(O)CBr (stereo unspecified)
inactive: dose: 0.1 mg/kg/injection, schedule: Q01DX009 (ip), vehicle: Klucel (hydroxypropylcellulose) (HPC) 100 % of control | dose: 0.2 mg/kg/injection, schedule: Q01DX009 (ip), vehicle: Klucel (hydroxypropylcellulose) (HPC) 100 % of control | dose: 0.38 mg/kg/injection, schedule: Q01DX009 (ip), vehicle: Klucel (hydroxypropylcellulose) (HPC) 95 % of control | dose: 0.4 mg/kg/injection, schedule: Q01DX009 (ip), vehicle: Klucel (hydroxypropylcellulose) (HPC) 97 % of control

COc1ccc(NC(=S)Nc2ccccc2C(F)(F)F)c(OC)c1
inactive: [4] 99 % of control | [5] 95 % of control | [6] 94 % of control

CCCCCCOc1cc2c(cc1C(C)c1ccc(OC)cc1)OCO2 (stereo unspecified)
inactive: [7] 103 % of control | [8] 109 % of control | [9] 109 % of control

COc1cc(C(c2cc3c(cc2O)OCO3)N2CCN(C(c3ccc(O)c(OC)c3)c3cc4c(cc3O)OCO4)CC2)ccc1O (stereo unspecified)
inactive: [10] 89 % of control | [11] 92 % of control | [12] 95 % of control

CCOC(=O)C1CN(C(=O)OCC)CCC1NC(C)=O (stereo unspecified)
inactive: [13] 102 % of control | [14] 96 % of control | [15] 98 % of control

CC1(C)C(C)(C)C1(Br)Br
inactive: dose: 12.5 mg/kg/injection, schedule: Q01DX009 (ip), vehicle: saline + alcohol 102 % of control | dose: 25.0 mg/kg/injection, schedule: Q01DX009 (ip), vehicle: saline + alcohol 111 % of control | dose: 50.0 mg/kg/injection, schedule: Q01DX009 (ip), vehicle: saline + alcohol 103 % of control | dose: 100.0 mg/kg/injection, schedule: Q01DX009 (ip), vehicle: saline + alcohol 100 % of control and 95 % of control | dose: 200.0 mg/kg/injection, schedule: Q01DX009 (ip), vehicle: saline + alcohol 89 % of control

CC1N=NNN1C (stereo unspecified)
inactive: dose: 50.0 mg/kg/injection, schedule: Q01DX005 (ip), vehicle: saline with Tween-80 109 % of control | dose: 100.0 mg/kg/injection, schedule: Q01DX005 (ip), vehicle: saline with Tween-80 109 % of control | dose: 200.0 mg/kg/injection, schedule: Q01DX005 (ip), vehicle: saline with Tween-80 100 % of control

CC(C)C(NC(=O)C1CCCN1)P(=O)(O)O (stereo unspecified)
inactive: dose: 60.0 mg/kg/injection, schedule: Q01DX005 (ip), vehicle: saline 101 % of control | dose: 120.0 mg/kg/injection, schedule: Q01DX005 (ip), vehicle: saline 104 % of control | dose: 240.0 mg/kg/injection, schedule: Q01DX005 (ip), vehicle: saline 104 % of control

CC(CC(=O)c1cccc([N+](=O)[O-])c1)=NCC(C)N=C(C)CC(=O)c1cccc([N+](=O)[O-])c1 (stereo unspecified)
inactive: dose: 100.0 mg/kg/injection, schedule: Q04DX003 (ip), vehicle: saline with Tween-80 98 % of control | dose: 200.0 mg/kg/injection, schedule: Q04DX003 (ip), vehicle: saline with Tween-80 101 % of control | dose: 400.0 mg/kg/injection, schedule: Q04DX003 (ip), vehicle: saline with Tween-80 106 % of control

O=C(NCc1ccccc1)C1C(=O)C(=O)N(Cc2ccccc2)C1=O (stereo unspecified)
inactive: [4] 105 % of control | [5] 100 % of control | [6] 107 % of control

COc1ccc2[nH]c3ccc4cc[n+](CCN5CCC(C6CCN(CC[n+]7ccc8ccc9[nH]c%10ccc(OC)cc%10c9c8c7)CC6)CC5)cc4c3c2c1
inactive: [9] 112 % of control
active: dose: 1.0 mg/kg/injection, schedule: Q01DX005 (ip), vehicle: water 165 % of control | dose: 1.56 mg/kg/injection, schedule: Q01DX005 (ip), vehicle: Klucel (hydroxypropylcellulose) (HPC) 159 % of control and 160 % of control | dose: 2.0 mg/kg/injection, schedule: Q01DX005 (ip), vehicle: water 160 % of control and 170 % of control | dose: 3.12 mg/kg/injection, schedule: Q01DX005 (ip), vehicle: Klucel (hydroxypropylcellulose) (HPC) 150 % of control and 166 % of control | dose: 4.0 mg/kg/injection, schedule: Q01DX005 (ip), vehicle: water 161 % of control and 182 % of control | dose: 6.25 mg/kg/injection, schedule: Q01DX005 (ip), vehicle: Klucel (hydroxypropylcellulose) (HPC) 167 % of control and 169 % of control | dose: 6.25 mg/kg/injection, schedule: Q01DX005 (ip), vehicle: other 161 % of control | dose: 8.0 mg/kg/injection, schedule: Q01DX005 (ip), vehicle: water 163 % of control and 173 % of control and 191 % of control | dose: 12.5 mg/kg/injection, schedule: Q01DX005 (ip), vehicle: Klucel (hydroxypropylcellulose) (HPC) 179 % of control and 201 % of control | dose: 12.5 mg/kg/injection, schedule: Q01DX005 (ip), vehicle: other 193 % of control | dose: 16.0 mg/kg/injection, schedule: Q01DX005 (ip), vehicle: water 160 % of control and 190 % of control and 221 % of control | dose: 25.0 mg/kg/injection, schedule: Q01DX005 (ip), vehicle: Klucel (hydroxypropylcellulose) (HPC) 179 % of control and 200 % of control and 212 % of control | dose: 25.0 mg/kg/injection, schedule: Q01DX005 (ip), vehicle: other 175 % of control and 204 % of control | dose: 32.0 mg/kg/injection, schedule: Q01DX005 (ip), vehicle: water 167 % of control and 185 % of control and 223 % of control | [7] 160 % of control and 224 % of control and 255 % of control | dose: 50.0 mg/kg/injection, schedule: Q01DX005 (ip), vehicle: other 153 % of control and 160 % of control | [8] 193 % of control

CSC(=S)N/N=C(\C)c1ccccn1
inactive: [1] 92 % of control | [2] 92 % of control | [3] 99 % of control | dose: 400.0 mg/kg/injection, schedule: Q01DX009 (ip), vehicle: saline 106 % of control

CC1=CC2(C)OC3C(=O)N(c4ccc(Cl)cc4)C(=O)C3C2N=C1 (stereo unspecified)
inactive: [10] 104 % of control | [11] 99 % of control | [12] 100 % of control

CC1SC2(C(=O)Nc3ccc([N+](=O)[O-])cc32)N(c2ccc(Cl)cc2)C1=O (stereo unspecified)
inactive: [10] 91 % of control | [11] 91 % of control | [12] 91 % of control

CCCCCCCC(=O)NC(CCSC)C(=O)O (stereo unspecified)
inactive: [7] 107 % of control | [8] 88 % of control | [9] 104 % of control

CCCCCCC(=O)/C=C/c1cccc(OCOCC)c1
inactive: dose: 50.0 mg/kg/injection, schedule: Q01DX009 (ip), vehicle: saline with Tween-80 111 % of control and 113 % of control and 122 % of control | dose: 100.0 mg/kg/injection, schedule: Q01DX009 (ip), vehicle: saline with Tween-80 115 % of control and 122 % of control | dose: 200.0 mg/kg/injection, schedule: Q01DX009 (ip), vehicle: saline with Tween-80 108 % of control and 119 % of control

CN(CN(C)N=Nc1ccc(Cl)cc1)CN(C)N=Nc1ccc(Cl)cc1
inactive: [13] 104 % of control | [14] 110 % of control | [15] 110 % of control
